From ChEMBL document CHEMBL2429729, “Synthesis, biological evaluation, and molecular modeling of (E)-2-aryl-5-styryl-1,3,4-oxadiazole derivatives as acetylcholine esterase inhibitors” (Med Chem Res, 2013)

target: Acetylcholinesterase (Electrophorus electricus, UniProt O42275); assay: Inhibition of electric eel AChE using acetylthiocholine as substrate incubated for 20 mins prior to substrate addition measured every 30 secs for 4 mins by Ellman's method
Sequence (O42275 whole entry): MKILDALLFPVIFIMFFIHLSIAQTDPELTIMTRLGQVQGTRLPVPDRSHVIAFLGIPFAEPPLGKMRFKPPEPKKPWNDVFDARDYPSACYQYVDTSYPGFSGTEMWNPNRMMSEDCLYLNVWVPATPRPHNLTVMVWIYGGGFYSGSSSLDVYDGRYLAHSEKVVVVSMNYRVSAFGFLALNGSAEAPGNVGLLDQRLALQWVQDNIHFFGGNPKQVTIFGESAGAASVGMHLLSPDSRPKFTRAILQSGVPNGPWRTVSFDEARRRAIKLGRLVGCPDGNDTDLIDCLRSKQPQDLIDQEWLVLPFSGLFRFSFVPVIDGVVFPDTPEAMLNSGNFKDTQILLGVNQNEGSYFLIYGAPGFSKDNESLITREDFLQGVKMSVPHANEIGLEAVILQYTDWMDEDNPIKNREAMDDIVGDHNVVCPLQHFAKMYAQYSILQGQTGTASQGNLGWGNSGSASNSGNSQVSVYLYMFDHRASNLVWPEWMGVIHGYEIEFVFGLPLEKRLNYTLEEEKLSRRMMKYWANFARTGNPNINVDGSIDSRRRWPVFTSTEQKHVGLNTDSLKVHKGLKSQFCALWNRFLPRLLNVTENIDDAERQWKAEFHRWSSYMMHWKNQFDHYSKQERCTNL

| SMILES | IC50 [µM] |
| --- | --- |
| COc1cc(/C=C/c2nnc(-c3cccnc3)o2)cc(OC)c1OC | 65 |
| COc1cc(/C=C/c2nnc(-c3cncc(Br)c3)o2)cc(OC)c1OC | 62.8 |
| COc1ccc(-c2nnc(/C=C/c3cc(OC)c(OC)c(OC)c3)o2)cc1 | 61.2 |
| O=[N+]([O-])c1cccc(-c2nnc(/C=C/c3ccc4c(c3)OCO4)o2)c1 | 49.4 |
| Clc1ccccc1-c1nnc(/C=C/c2ccc3c(c2)OCO3)o1 | 47.4 |
| O=[N+]([O-])c1ccc(-c2nnc(/C=C/c3ccc4c(c3)OCO4)o2)cc1 | 37.6 |
| COc1cc(-c2nnc(/C=C/c3ccc4c(c3)OCO4)o2)cc(OC)c1OC | 48.6 |
| COc1ccc(-c2nnc(/C=C/c3ccc4c(c3)OCO4)o2)cc1OC | 40.5 |
| Clc1ccc(-c2nnc(/C=C/c3ccc4c(c3)OCO4)o2)c(Cl)c1 | 50.3 |
| Fc1ccc(-c2nnc(/C=C/c3ccc4c(c3)OCO4)o2)cc1Cl | 49.6 |
| Brc1cncc(-c2nnc(/C=C/c3ccc4c(c3)OCO4)o2)c1 | 52.5 |
| C(=C\c1nnc(-c2ccccc2)o1)/c1ccc2c(c1)OCO2 | 50.1 |
| Brc1ccccc1-c1nnc(/C=C/c2ccc3c(c2)OCO3)o1 | 40.2 |
| Fc1ccc(-c2nnc(/C=C/c3ccc4c(c3)OCO4)o2)c(Cl)c1 | 19.6 |
| Clc1ncccc1-c1nnc(/C=C/c2ccc3c(c2)OCO3)o1 | 54.3 |
| Cc1ccc(-c2nnc(/C=C/c3ccc4c(c3)OCO4)o2)cc1 | 45.3 |
| C(=C\c1nnc(-c2cccnc2)o1)/c1ccc2c(c1)OCO2 | 48.5 |
| COc1ccc(-c2nnc(/C=C/c3ccc4c(c3)OCO4)o2)cc1 | 42.8 |
| COc1cc(/C=C/c2nnc(-c3ccccc3)o2)cc(OC)c1OC | 24.9 |
| COc1cc(/C=C/c2nnc(-c3ccc(C)cc3)o2)cc(OC)c1OC | 60.2 |
| COc1cc(/C=C/c2nnc(-c3ccc(Cl)cc3Cl)o2)cc(OC)c1OC | 62.2 |
| COc1cc(/C=C/c2nnc(-c3cccnc3Cl)o2)cc(OC)c1OC | 61.2 |
| COc1cc(/C=C/c2nnc(-c3ccccc3Br)o2)cc(OC)c1OC | 64.9 |
| COc1cc(/C=C/c2nnc(-c3cc4ccccc4o3)o2)cc(OC)c1OC | 60.4 |
| COc1cc(/C=C/c2nnc(-c3ccco3)o2)cc(OC)c1OC | 13.7 |
| COc1cc(/C=C/c2nnc(-c3ccc([N+](=O)[O-])cc3)o2)cc(OC)c1OC | 49 |
| COc1cc(/C=C/c2nnc(-c3cc(OC)c(OC)c(OC)c3)o2)cc(OC)c1OC | 61.5 |
| COc1cc(/C=C/c2nnc(-c3cccc([N+](=O)[O-])c3)o2)cc(OC)c1OC | 65.8 |
| COc1cc(/C=C/c2nnc(-c3ccccc3Cl)o2)cc(OC)c1OC | 58.1 |
| COc1cc(/C=C/c2nnc(-c3ccc(F)cc3Cl)o2)cc(OC)c1OC | 60.2 |
